Assay results reported in PubChem BioAssay AID1996.
In brackets after ≈: the same amount, converted by molar mass.

Settings: buffer; pH 7.4; 200.0 µM

solubility kinetic [µg/mL] | SMILES
17.2 (≈ 47.2 µM) | Cc1ccc(C)c(S(=O)(=O)/N=C(/Nc2ccccc2)c2ccccc2)c1
1.4 (≈ 4.15 µM) | CC(=O)c1ccc(N2CCN(C(=O)Nc3ccc(C)cc3)CC2)cc1
31.7 (≈ 93.7 µM) | CC1CCCN(CC(=O)N2c3ccccc3Sc3ccccc32)C1 (centres undefined)
1.5 (≈ 4.51 µM) | Cc1cccc(NS(=O)(=O)c2ccc3c(c2)oc(=O)n3C)c1C
> 76.7 | Cc1ccc(S(=O)(=O)NCC(=O)OCC(=O)Nc2cccc(S(=O)(=O)N3CCOCC3)c2)cc1
> 53.3 | O=C(NC(=S)N1CCN(C/C=C/c2ccccc2)CC1)c1ccco1
46.8 (≈ 143 µM) | COc1ccccc1CC(=O)N1CCN(c2ccccc2F)CC1
> 39.6 | O=C(NCc1cccnc1)c1cnc2ccccc2n1
1.9 (≈ 7.14 µM) | Nc1nccc(/C=C/c2c(Cl)cccc2Cl)n1
1.8 (≈ 5.95 µM) | O=C1C(Nc2ccccc2)=C2CCCC=C2N1c1ccccc1
1.1 (≈ 4.29 µM) | COC(=O)/C(C#N)=C\c1c(OC)[nH]c2ccccc12
< 0.2 | Cc1ccc(Cc2c(C)c(C#N)c3[nH]c4ccccc4n3c2=O)cc1
31.8 (≈ 129 µM) | Cc1ccc(NC(=S)Nc2cc(C)on2)cc1
14.4 (≈ 44.7 µM) | Cc1cc(C)cc(NC(=O)C(C)N2C(=O)c3ccccc3C2=O)c1 (centres undefined)
1.2 (≈ 3.49 µM) | O=[N+]([O-])c1cccc(NC(=S)N2CCN(c3ccccn3)CC2)c1
0.9 (≈ 2.63 µM) | CCOc1ccc(-c2nc(N)ncc2-c2ccc(Cl)cc2)c(O)c1

solubility kinetic [µg/mL] | SMILES
> 40.7 | COc1ccc(/C=N/NC(=O)c2cc[n+]([O-])cc2)cc1
> 38.9 | CC(C)NC(=O)C1=NN(c2ccccc2)C(=O)CC1
> 50.6 | CCO/C=C1\C(=O)N(c2ccc(OCC)cc2)C(=O)c2ccccc21
> 51.1 | O=C1CN(C(=O)COC(=O)COc2ccccc2)c2ccccc2N1
44.9 (≈ 140 µM) | CC1Cc2ccccc2N1C(=O)C1CC(=O)N(c2ccccc2)C1 (centres undefined)
8.8 (≈ 27.4 µM) | COc1ccccc1NC(=O)c1ccc(C(=O)c2ccccc2)o1
> 50.2 | CC(=O)Nc1ccc(S(=O)(=O)Nc2ccc3c(c2)OCO3)cc1
1.6 (≈ 4.89 µM) | CCCOc1ccc(C(=O)NC2CCSc3ccccc32)cc1 (centres undefined)
0.7 (≈ 2.74 µM) | COC(=O)NC1c2ccccc2Oc2ccccc21
1.4 (≈ 3.86 µM) | Cc1oc(-c2ccc(Cl)cc2)cc1C(=O)/C(C#N)=C/Nc1ccccc1
41.1 (≈ 124 µM) | Cc1[nH]c2ccccc2c1CCNC(=O)c1ccc2nccnc2c1
> 73 | COc1cc(/C=C/C(=O)O)cc(S(=O)(=O)Nc2ccccc2C(=O)NCc2ccco2)c1OC
> 53.8 | Cc1c(NS(=O)(=O)c2ccc(N)cc2)c(=O)n(-c2ccccc2)n1C
20.3 (≈ 80.4 µM) | Cc1ccc(N=Cc2ccc(N(C)C)cc2)cc1C
41.5 (≈ 143 µM) | O=C(O)c1cc(-c2ccc(Cl)s2)nc2ccccc12
2.6 (≈ 9.14 µM) | CNC(=O)COC(=O)c1ccccc1Nc1ccccc1

Further lines, the compound ahead of its results:

SMILES | solubility kinetic [µg/mL]
CC1CCCCN1S(=O)(=O)Cc1ccccc1Cl (centres undefined) | > 43.2
CCN(C(=O)c1ccco1)c1nnc(-c2cccnc2)s1 | > 45.1
Cc1ccnc2nc(NC(=O)c3ccco3)nn12 | > 36.5
COc1cccc(C(=O)OCC(=O)NC23CC4CC(CC(C4)C2)C3)c1 | 19.8 (≈ 57.7 µM)
CCOC(=O)N1CCc2c(sc3ncn(C)c(=O)c23)C1 | 36.7 (≈ 125 µM)
Cc1nc(SCC(=O)NCC2CCCO2)[nH]c(=O)c1C (centres undefined) | > 44.6
CCC1CCC(N2CCN(c3cccc(OC)c3)CC2)CC1 (centres undefined) | 32.6 (≈ 108 µM)
CN(C)CCOC1c2ccccc2CCc2ccc3ccccc3c21.O=C(O)C(=O)O (centres undefined) | > 63.2
OCC1CCCCN1C(=S)Nc1ccc(Cl)cc1Cl (centres undefined) | > 47.9
Cc1cccc(NC(=O)C(C)N2CC=C(c3ccccc3)CC2)c1 (centres undefined) | 2.9 (≈ 9.05 µM)
NS(=O)(=O)c1ccc(N2CCOCC2)c(C(=O)NCc2cccs2)c1 | > 57.2
Cc1cccc2c1NC(=O)C21OCC(CO)([N+](=O)[O-])CO1 (centres undefined) | 24.8 (≈ 84.3 µM)
Cc1ccc(CN2CCCN(Cc3ccccc3C)S2(=O)=O)cc1 | 0.5 (≈ 1.45 µM)
O=C(NC1CCS(=O)(=O)C1)c1cccnc1 (centres undefined) | 26.1 (≈ 109 µM)
NC(=O)C1CCN(C(=O)c2cc(Cl)c3c(c2)OCCO3)CC1 | > 48.7
CC1C(=O)N2CCCc3cc(NC(=O)C(=O)NCc4cccnc4)cc1c32 (centres undefined) | > 54.7
O=C(COc1ccccc1[N+](=O)[O-])OCC(=O)c1ccc(Br)s1 | 59.9 (≈ 150 µM)
Cc1ccc(-n2nc3c(c2NC(=O)C(C)C)CS(=O)(=O)C3)c(C)c1 | > 52.1
NC(=O)C1(C(N)=O)OC1c1ccc(Cl)c(Cl)c1 (centres undefined) | > 41.3
COc1ccc(S(=O)(=O)Nc2cc(Sc3ncn[nH]3)c(O)cc2C)cc1 | > 58.9
COC(=O)CNC(=O)COC(=O)c1cc(SC)ccc1Cl | > 49.8
N#CC1(N2CCN(C(=O)c3ccccc3)CC2)CCCCC1 | 35.9 (≈ 121 µM)
CC(C)N(C(=O)CSc1nc2ccccc2c(=O)[nH]1)C(C)C | 46.4 (≈ 145 µM)
COc1ccc(OC)c(N(CC(=O)N2CCOCC2)S(C)(=O)=O)c1 | > 53.8
CCCc1cc(=O)[nH]c(SCC(=O)Nc2nonc2C)n1 | > 46.4
CCN(CC(=O)NC(C)C)C(=O)[C@@H](NC(=O)c1ccco1)C(C)C | > 50.6
O=C(CSc1ncccn1)N1CCC(Cc2ccccc2)CC1 | > 49.1
